{"source": "patent US8853227B2", "about": "“Methotrexate adjuvants to reduce toxicity and methods for using the same” (Tosk, Incorporated, priority 2008, dated 2014)", "test_system": "CCRF-CEM cells", "assay": "Cell Culture Study I (MTX cytotoxicity, alamarBlue)", "assay_type": "cell-based, human", "procedure": "In this study, CCRF-CEM cells purchased from ATCC were cultured and then 12 tubes containing approximately 10^6 cells each treated for 72 hours with media (Group1), MTX 0.03 μM (Group2), MTX+Leucovorin 1 μM (Group3), MTX+Leucovorin 10 μM (Group4), MTX+Leucovorin 100 μM (GroupS), MTX+TK-112690 1 μM (Group6), MTX+TK-112690 10 μM (Group7) and MTX+TK-112690 100 μM (Group8). […] Viability was measured as percent reduction of alamarBlue absorbance.\nThe tumor cell line CCR-CEM (human T-cell acute lymphoblastic leukemia) is obtained from American Type Culture Collection (CRL-1593.2) and cultured in accordance with the product information sheet with the following exceptions: 55.3 cm^2 Petri dishes are used instead of 75 cm^2 culture flasks, and 1% penicillin-streptomycin solution (HyClone SV30010) and 1% GlutaMAX™ (Gibco 35050) are added to the culture medium.\nTK-112690, the representative 2,2′-anhydropyrimidine test article, is dissolved in 40% DMSO, sterile filtered then diluted with sterile distilled water to obtain initial working solutions of 10, 100 and 1000 μM. In testing, a 100 fold dilution is made in culture media to give final assay concentrations of 0.1, 1.0 and 10.0 μM. MTX (SAFC Biosciences M8407) is dissolved in sterile distilled water and 5 N NaOH then sterile filtered. The final pH of the stock solution is 7.8 and working solutions are made with sterile distilled water for final assay concentrations of 30, 3.0, 0.3, 0.03 and 0.003 μM. Leucovorin (Sigma F-7878) is dissolved in sterile distilled water, sterile filtered and diluted with sterile distilled water for final assay concentrations of 0.1, 1.0 and 10.0 μM.\nAliquots of 100 μL of cell suspension are plated in 96 well microtiter plates (Corning costar 3595) and placed in an atmosphere of 5% CO2 at 37° C. (Fisher Scientific Isotemp 3500 CO2 Incubator). After 24 hours, 100 μL of growth medium [RPMI-1640 w/L-glutamine (Cambrex 12-702Q) fortified with sodium pyruvate (HyClone SH30239.01), fetal bovine serum (SAFC Biosciences 12107C) and HEPES buffer (Gibco 15630)] and 2 μL of test solution or vehicle are added respectively per well and the plates incubated for an additional 72 hour incubation. MTX is evaluated at concentrations of 0.003, 0.03, 0.30 and 3.0 μM alone or in combination with either a 2,2′-anhydropyrimidine test article or Leucovorin at concentrations of 0.1, 1.0, 10.0 μM. At the end of incubation, the efficacy of anti-cell proliferation is determined by optical absorbance at A=570 and 600 nm [Spectramax 250 (Molecular Devices)] in accordance with the standard alamarBlue™ (Biosource) protocol.\nGroup 1 is the cell control (media treated). Group 2 corresponds to cells treated with 0.03 μM MTX. Group 3 are cells treated with 1.0 μM Leucovorin. Group 4 are cells treated with 0.1 μM Leucovorin. […]"}
{"compound": "Cc1cn2c(nc1=O)O[C@H]1[C@H](O)[C@@H](CO)O[C@H]12", "note": "[TK-112690, 2,2′-anhydro-5-methyluridine]", "values": [{"measurement": "cell viability, MTX+TK-112690 versus MTX alone", "setting": "0.03 μM MTX + TK-112690, 72 hours, p<0.844, 0.918, 1.000", "result": "not different"}, {"measurement": "cell viability, test article alone versus control", "setting": "without MTX, 72 hours", "result": "not statistically different than control"}]}
